In PubChem BioAssay (NCI):
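How tested: cells in 96-well plates exposed to compound for 48 hours at five concentrations. GI50 = concentration required for 50% inhibition of growth. TGI: concentration producing complete growth inhibition.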

Columns and labels:
Assay in all cases: NCI tumour cell line growth inhibition, 48 h
HL-60(TB) leukemia = test system: HL-60(TB) leukemia
HS 578T breast = test system: HS 578T breast
SK-MEL-2 melanoma = test system: SK-MEL-2 melanoma
BT-549 breast = test system: BT-549 breast
IGROV1 ovarian = test system: IGROV1 ovarian
DU-145 prostate = test system: DU-145 prostate
SF-268 CNS = test system: SF-268 CNS
K-562 leukemia = test system: K-562 leukemia
OVCAR-4 ovarian = test system: OVCAR-4 ovarian
HCT-15 colon = test system: HCT-15 colon
MALME-3M melanoma = test system: MALME-3M melanoma
A498 renal = test system: A498 renal
EKVX NSCLC = test system: EKVX NSCLC
SK-OV-3 ovarian = test system: SK-OV-3 ovarian
SNB-19 CNS = test system: SNB-19 CNS
NCI-H522 lung = test system: NCI-H522 lung
MOLT-4 leukemia = test system: MOLT-4 leukemia
SW-620 colon = test system: SW-620 colon
NCI-H23 lung = test system: NCI-H23 lung
U251 CNS = test system: U251 CNS
SF-539 CNS = test system: SF-539 CNS
SNB-75 CNS = test system: SNB-75 CNS
KM12 colon = test system: KM12 colon
UACC-62 melanoma = test system: UACC-62 melanoma
SK-MEL-5 melanoma = test system: SK-MEL-5 melanoma
SN12C renal = test system: SN12C renal
NCI-H460 lung = test system: NCI-H460 lung
HT29 colon = test system: HT29 colon
RPMI-8226 leukemia = test system: RPMI-8226 leukemia
786-0 renal = test system: 786-0 renal
ACHN renal = test system: ACHN renal
HOP-92 NSCLC = test system: HOP-92 NSCLC
MDA-MB-435 = test system: MDA-MB-435
A549 NSCLC = test system: A549 NSCLC
HCT-116 colon = test system: HCT-116 colon
CAKI-1 renal = test system: CAKI-1 renal
PC-3 prostate = test system: PC-3 prostate
RXF 393 renal = test system: RXF 393 renal
TK-10 renal = test system: TK-10 renal
MDA-MB-231 breast = test system: MDA-MB-231 breast
OVCAR-8 ovarian = test system: OVCAR-8 ovarian
SF-295 CNS = test system: SF-295 CNS
NCI-H226 lung = test system: NCI-H226 lung
UACC-257 melanoma = test system: UACC-257 melanoma
MCF7 breast = test system: MCF7 breast
UO-31 renal = test system: UO-31 renal
M14 melanoma = test system: M14 melanoma
COLO 205 colon = test system: COLO 205 colon
OVCAR-5 ovarian = test system: OVCAR-5 ovarian
LOX IMVI melanoma = test system: LOX IMVI melanoma
HOP-62 NSCLC = test system: HOP-62 NSCLC
SK-MEL-28 melanoma = test system: SK-MEL-28 melanoma
NCI/ADR-RES ovarian = test system: NCI/ADR-RES ovarian
OVCAR-3 ovarian = test system: OVCAR-3 ovarian

For N=C(N)c1ccc(-c2ccc(-c3ccc(Cl)c(Cl)c3)o2)cc1, the GI50 (HL-60(TB) leukemia) was 1550 nM, the TGI (HL-60(TB) leukemia) was 4.05 µM and the GI50 (HS 578T breast) was 2100 nM. It also gave a TGI (HS 578T breast) of 5.52 µM.
Cc1ccc(S(=O)(=O)CC2(Br)CCc3ccccc3C2=O)cc1 (stereo not drawn) was tested, and the TGI (SK-MEL-2 melanoma) was 44.9 µM, the TGI (BT-549 breast) was 41.1 µM and the TGI (IGROV1 ovarian) was 41 µM. For the same molecule, the TGI (DU-145 prostate) was > 100 µM, the TGI (SF-268 CNS) was 36.5 µM and the TGI (K-562 leukemia) was > 100 µM. The TGI (OVCAR-4 ovarian) was 50 µM, the TGI (HCT-15 colon) was 42.5 µM and the TGI (MALME-3M melanoma) was 68.6 µM. For the same molecule, the TGI (A498 renal) was 95 µM, the TGI (EKVX NSCLC) was > 100 µM and the TGI (SK-OV-3 ovarian) was > 100 µM. For the same molecule, the TGI (SNB-19 CNS) was > 100 µM, the TGI (NCI-H522 lung) was 32.7 µM and the TGI (MOLT-4 leukemia) was > 100 µM. For the same molecule, the TGI (SW-620 colon) was > 100 µM, the TGI (NCI-H23 lung) was > 100 µM and the TGI (HL-60(TB) leukemia) was 87.3 µM. For the same molecule, the TGI (U251 CNS) was 46.8 µM, the TGI (SF-539 CNS) was > 100 µM and the TGI (SNB-75 CNS) was 54.9 µM. For the same molecule, the TGI (KM12 colon) was > 100 µM, the TGI (UACC-62 melanoma) was 67.9 µM and the TGI (HS 578T breast) was > 100 µM. The TGI (SK-MEL-5 melanoma) was 38.4 µM, the TGI (SN12C renal) was > 100 µM and the TGI (NCI-H460 lung) was > 100 µM. For the same molecule, the TGI (HT29 colon) was 58.6 µM, the TGI (RPMI-8226 leukemia) was > 100 µM and the TGI (786-0 renal) was > 100 µM. The TGI (ACHN renal) was 38.2 µM, the TGI (HOP-92 NSCLC) was > 100 µM and the TGI (MDA-MB-435) was 40.3 µM. The TGI (A549 NSCLC) was > 100 µM, the TGI (HCT-116 colon) was > 100 µM and the TGI (CAKI-1 renal) was 53.4 µM. The TGI (PC-3 prostate) was > 100 µM, the TGI (RXF 393 renal) was 39 µM and the TGI (TK-10 renal) was 85.7 µM. For the same molecule, the TGI (MDA-MB-231 breast) was 84.9 µM, the TGI (OVCAR-8 ovarian) was 64.8 µM and the TGI (SF-295 CNS) was > 100 µM. For the same molecule, the TGI (NCI-H226 lung) was > 100 µM, the TGI (UACC-257 melanoma) was 44.1 µM and the TGI (MCF7 breast) was 85.9 µM. For the same molecule, the TGI (UO-31 renal) was 50.5 µM, the TGI (M14 melanoma) was > 100 µM and the TGI (COLO 205 colon) was 43.6 µM. The TGI (OVCAR-5 ovarian) was > 100 µM, the TGI (LOX IMVI melanoma) was > 100 µM and the TGI (HOP-62 NSCLC) was > 100 µM. The TGI (SK-MEL-28 melanoma) was 38.5 µM, the TGI (NCI/ADR-RES ovarian) was > 100 µM and the TGI (OVCAR-3 ovarian) was > 100 µM.
